Columns and labels:
[1] = tested on: ILK and Akt; test: western blot of heart lysates after coronary ligation; assay type: in vivo, mice
Procedure: Because thymosin β4 upregulates ILK activity and Akt phosphorylation in cultured cells, the effects on these kinases in vivo were tested. […] Total Akt protein was not increased.
Myocardial infarction was produced in fifty-eight male C57BL/6J mice at 16 weeks of age (25-30 g) by ligation of the left anterior descending coronary artery as previously described. Twenty-nine of the ligated mice received thymosin β4 treatment immediately following ligation and the remaining twenty-nine received PBS injections. Treatment was given intracardiac with thymosin β4 (200 ng in 10 ul collagen) or with 10 ul of collagen; intraperitoneally with thymosin β4 (150 μg in 300 μl PBS) or with […]; or by both intracardiac and intraperitoneal injections. Intraperitoneal injections were given every three days until mice were sacrificed. Doses were based on previous studies of thymosin β4 biodistribution. Hearts were removed, weighed and fixed for histologic sectioning. Additional mice were operated on in a similar fashion for studies 0.5, 1, 3, 6 and 11 days after ligation.

[2] = tested on: embryonic heart explants; assay type: cell-based
Description: To test the effects of secreted thymosin β4 on cardiac cell migration, an embryonic heart explant system designed to assay cell migration and transformation events on a three-dimensional collagen gel was utilized. In this assay, explants of adjacent embryonic myocardium and endocardium from valve-forming regions were placed on a collagen gel with the endocardium adjacent to the collagen.
Outflow tract was dissected from E11.5 wild type mouse embryos and placed on collagen matrices as previously described. After 10 hours of attachment explants were incubated in 30 ng/300 μl thymosin β4 in PBS, PBS alone or thymosin β4 and 100 nM wortmanin. Cultures were carried out for 3-9 days at 37° C. 5% CO2 and fixed in 4% paraformaldehyde in PBS for 10 min at RT. Cells were counted for quantification of migration and distance using at least three separate explants under each condition for endothelial migration and eight separate explants for myocardial migration.
Paraformaldehyde-fixed explants were permeabilized for 10 min at RT with Permeabilize solution (10 mM PIPES pH6.8; 50 mMNaCl; 0.5% Triton X-100; 300 mM Sucrose; 3 mM MgCl2) and rinsed with PBS 2×5 min at RT. After a series of blocking and rinsing steps, detection antibodies were used and explants rinsed and incubated with Equilibration buffer (Anti-Fade kit) 10 min at room temperature. Explants were scooped to a glass microscope slide, covered, and examined by fluorescein microscopy. TUNEL assay was performed using ApopTag Plus Fluorescein In Situ Apoptosis detection kit (Intergen Company # S7111) as recommended.

[3] = tested on: primary rat neonatal cardiomyocytes; test: primary neonatal cardiomyocytes cultured on laminin-coated glass; assay type: cell-based
Procedure: To test the response of post-natal cardiomyocytes, primary rat neonatal cardiomyocytes were cultured on laminin-coated glass and treated the cells with phosphate buffered saline (PBS) or thymosin β4. […] In addition to thymosin β4's effects on myocardial cell migration, a similar effect was observed on endothelial migration in the embryonic heart explant assay.
Primary culture of neonatal cardiomyocytes typically survived for approximately one to two weeks with some cells beating up to two weeks when grown on laminin-coated slides in our laboratory. […] In addition, the rate of beating was consistently faster in thymosin β4-treated neonatal cardiomyocytes (95 vs. 50 beats per minute, p<0.02), indicating either a change in cell-cell communication or more vigorous cardiomyocytes.

[4] = tested on: ILK; test: ILK localization, expression and activation (immunocytochemistry, Western); assay type: cell-based
Procedure: Because recruitment of ILK to the focal adhesion complex is important for its activation, the effects of thymosin β4 on ILK localization and expression were assayed. […] Because thymosin β4 sequesters the pool of G-actin monomers, the effects on ILK activation were dependent on thymosin β4's role in regulating the balance between polymerized F-actin and monomeric G-actin were tested. F-actin polymerization was inhibited using C3 transferase and also F-actin formation was promoted with an activated Rho, but neither intervention affected the ILK activation observed after treatment of COS1 or C2C 12 cells with thymosin β4.

For thymosin β4, which “total Akt protein” value [1] is on record?
The value was “not increased”.

And the “level of ILK protein in heart lysates” value ([1]; compared with PBS treated mice)?
Its value is “increased”.

And the “amount of phosphorylated Akt-5473” value ([1]; phospho-specific antibodies)?
The value was “elevation”.

What about the “cell death based on TUNEL assay compared to control cells” value [2] of the same substance?
Its value is “No significant difference”.

And the “number of migrating endothelial cells” value ([2]; E11.5 explants, compared to PBS, p<0.01)?
Its value is “increased number of migrating endothelial cells”.

And the “proliferative rate based on phosho-histone H3 immunostaining compared to control cells” value ([2]; migrated cells of explants)?
Its value is “No significant difference”.

And the “migration of myocardial cells away from the explant” value ([2]; thymosin β4 added to primary explants on collagen gel)?
Its value is “a large number of spontaneously beating, cardiac muscle actin-positive cells had migrated away from the explant”.

And the “migrational distance of neonatal cardiomyocytes” value ([3]; compared to PBS control, p<0.05)?
The value was “significantly increased”.

And the “survival, rhythmically contracting myocytes visible” value ([3]; laminin-coated slides, untreated cultures approximately one to two weeks)?
The value was “up to 28 days”.

What about the rate of beating ([3]; vs. 50 in control, p<0.02) of the same substance?
Its rate of beating is 95 beats per minute.

What about the “ILK protein levels by Western analysis” value ([4]; C2C12 cells) of the same substance?
The value was “modest increase”.

What about the “total Akt protein” value ([4]; C2C12 cells) of the same substance?
The value was “unchanged”.

What about the “phosphorylation of Akt (serine 473)” value ([4]; C2C12 cells, phospho-specific antibody) of the same substance?
The value was “increased phosphorylation”.

What about the “ILK detection by immunocytochemistry around the cell edges” value ([4]; embryonic heart explants or C2C12 myoblasts, synthetic thymosin β4 10 ng/100 ul or expressing plasmid) of the same substance?
The value was “markedly enhanced”.

From patent publication US20090169538A1, “Methods of Treating or Preventing Tissue Damage Caused by Increased Blood Flow” (REGENERX BIOPHARMACEUTICALS, INC., priority 2006, published 2009)
